Source: PubChem BioAssay (NCI)
“And” between values parts separate entries of the source, which are not always exact repeats. Equal values may be shown once.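 These data come from cells grown in 96-well plates and exposed to compound for 48 hours at five concentrations. GI50 is the concentration that inhibits growth by half. TGI: total growth inhibition.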

Tests used:
Assay in all cases: DTP human tumour cell line panel, 48 h; in the data active means GI50 below about 0.43 µM; inactive means the rest
[1] = system: UACC-257 melanoma
[2] = system: U251 CNS
[3] = system: SF-295 CNS
[4] = system: SNB-19 CNS
[5] = system: SR leukemia
[6] = system: MDA-MB-231 breast
[7] = system: CAKI-1 renal
[8] = system: RXF 393 renal
[9] = system: SW-620 colon
[10] = system: HCT-116 colon
[11] = system: KM12 colon
[12] = system: 786-0 renal
[13] = system: NCI-H23 lung
[14] = system: SK-MEL-28 melanoma
[15] = system: T-47D breast
[16] = system: NCI-H522 lung
[17] = system: NCI/ADR-RES ovarian
[18] = system: MALME-3M melanoma
[19] = system: NCI-H226 lung
[20] = system: SF-268 CNS
[21] = system: A498 renal
[22] = system: COLO 205 colon
[23] = system: OVCAR-5 ovarian
[24] = system: DU-145 prostate
[25] = system: MDA-MB-435
[26] = system: UACC-62 melanoma
[27] = system: NCI-H460 lung
[28] = system: M14 melanoma
[29] = system: SK-MEL-5 melanoma
[30] = system: SNB-75 CNS
[31] = system: HOP-92 NSCLC
[32] = system: MCF7 breast
[33] = system: HCC-2998 colon
[34] = system: ACHN renal
[35] = system: HL-60(TB) leukemia
[36] = system: SK-MEL-2 melanoma
[37] = system: HCT-15 colon
[38] = system: SN12C renal
[39] = system: SK-OV-3 ovarian
[40] = system: TK-10 renal
[41] = system: HOP-62 NSCLC
[42] = system: OVCAR-4 ovarian
[43] = system: HT29 colon
[44] = system: BT-549 breast
[45] = system: MOLT-4 leukemia
[46] = system: UO-31 renal
[47] = system: K-562 leukemia
[48] = system: OVCAR-3 ovarian
[49] = system: PC-3 prostate
[50] = system: CCRF-CEM leukemia
[51] = system: RPMI-8226 leukemia
[52] = system: OVCAR-8 ovarian
[53] = system: SF-539 CNS
[54] = system: LOX IMVI melanoma
[55] = system: IGROV1 ovarian
[56] = system: EKVX NSCLC
[57] = system: HS 578T breast
[58] = system: A549 NSCLC

FC(F)(F)c1ccc(CNc2ccc(Cc3c[nH]c4ncc(Cl)cc34)cn2)cn1
32.2 µM and > 10 µM: TGI [57] | TGI [58]
inactive: GI50 [1] 11.5 µM and > 10 µM | GI50 [2] 10.1 µM and > 10 µM | GI50 [3] 4.83 µM and 5.24 µM | GI50 [4] 10.8 µM and > 10 µM | GI50 [5] 6.13 µM and 6.63 µM | GI50 [6] 8.7 µM and > 10 µM | GI50 [7] 10.3 µM and > 10 µM | GI50 [8] 9.75 µM and > 10 µM | GI50 [9] 10.6 µM and > 10 µM | GI50 [10] 12.3 µM and > 10 µM | GI50 [11] 3.53 µM and 3.56 µM | GI50 [12] 5.33 µM and 4.19 µM | GI50 [13] 10.3 µM and > 10 µM | GI50 [14] 13.2 µM and > 10 µM | GI50 [15] 4.36 µM and 4.5 µM | GI50 [16] 10.5 µM and > 10 µM | GI50 [17] 7.68 µM and > 10 µM | GI50 [18] 12.3 µM and > 10 µM | GI50 [19] 4.91 µM and 3.94 µM | GI50 [20] 6.25 µM and > 10 µM | GI50 [21] 2.08 µM and 4.41 µM | GI50 [22] 5.58 µM and > 10 µM | GI50 [23] 23 µM and > 10 µM | GI50 [24] 12.4 µM and > 10 µM | GI50 [25] 5.92 µM and > 10 µM | GI50 [26] 8.56 µM | GI50 [27] 12.9 µM and > 10 µM | GI50 [28] 4.62 µM and > 10 µM | GI50 [29] 5.49 µM and 4.3 µM | GI50 [30] 2.2 µM and 2.48 µM | GI50 [31] 9.46 µM and 3.77 µM | GI50 [32] 6.34 µM and > 10 µM | GI50 [33] 12.5 µM and > 10 µM | GI50 [34] 13.2 µM and > 10 µM | GI50 [35] 16.5 µM and > 10 µM | GI50 [36] 17.6 µM and > 10 µM | GI50 [37] 10.1 µM and > 10 µM | GI50 [38] 13.9 µM and > 10 µM | GI50 [39] 8.8 µM and > 10 µM | GI50 [40] 13.5 µM and > 10 µM | GI50 [41] 11.4 µM and > 10 µM | GI50 [42] 3.6 µM and 6.33 µM | GI50 [43] 4.89 µM and > 10 µM | GI50 [44] 14.5 µM and > 10 µM | GI50 [45] 4.02 µM and 3.28 µM | GI50 [46] 3.78 µM and 6.32 µM | GI50 [47] 7.27 µM and 8.71 µM | GI50 [48] 14.4 µM and > 10 µM | GI50 [49] 9.65 µM and > 10 µM | GI50 [50] 13.9 µM and 6.85 µM | GI50 [51] 5.76 µM and 5.99 µM | GI50 [52] 5.34 µM and > 10 µM | GI50 [53] 10.6 µM and 8.14 µM | GI50 [54] 11.5 µM and > 10 µM | GI50 [55] 12.2 µM and > 10 µM | GI50 [56] 7.89 µM and > 10 µM | GI50 [57] 3.33 µM and 2.55 µM | GI50 [58] 10.5 µM and > 10 µM
34 µM and > 10 µM: TGI [49]
30 µM and > 10 µM: TGI [27]
30.8 µM and > 10 µM: TGI [7]
24.8 µM and > 10 µM: TGI [2]
70.6 µM and > 10 µM: TGI [50]
27.2 µM and > 10 µM: TGI [19]
42.2 µM and > 10 µM: TGI [5]
20.6 µM and > 10 µM: TGI [22]
33.6 µM and > 10 µM: TGI [24] | TGI [32]
30.6 µM and > 10 µM: TGI [38]
44.2 µM and > 10 µM: TGI [51]
36 µM and > 10 µM: TGI [34]
30.3 µM and > 10 µM: TGI [33]
28.3 µM and > 10 µM: TGI [15]
28.6 µM and > 10 µM: TGI [31] | TGI [52]
19.2 µM and > 10 µM: TGI [28] | TGI [29] | TGI [42]
26.3 µM and > 10 µM: TGI [54]
22.7 µM and > 10 µM: TGI [25]
14 µM and > 10 µM: TGI [21]
25 µM: TGI [26]
44.8 µM and > 10 µM: TGI [47]
36.4 µM and > 10 µM: TGI [40]
17.7 µM and > 10 µM: TGI [46]
50.8 µM and > 10 µM: TGI [23]
13.6 µM and > 10 µM: TGI [30]
26.8 µM and > 10 µM: TGI [9]
19.5 µM and > 10 µM: TGI [12]
38.7 µM and > 10 µM: TGI [17]
30.7 µM and > 10 µM: TGI [18]
21.9 µM and > 10 µM: TGI [45]
43.5 µM and > 10 µM: TGI [56]
27.1 µM and > 10 µM: TGI [37]
37.2 µM and > 10 µM: TGI [4] | TGI [36]
32 µM and > 10 µM: TGI [13]
32.5 µM and > 10 µM: TGI [39]
34.4 µM and > 10 µM: TGI [44]
30.2 µM and > 10 µM: TGI [14]
15.3 µM and > 10 µM: TGI [11]
33.7 µM and > 10 µM: TGI [48]
29.3 µM and > 10 µM: TGI [16] | TGI [20]
49.4 µM and > 10 µM: TGI [35]
25.8 µM and > 10 µM: TGI [1] | TGI [8]
29.4 µM and > 10 µM: TGI [41]
26.1 µM and > 10 µM: TGI [6]
24.4 µM and > 10 µM: TGI [3] | TGI [53]
27.4 µM and > 10 µM: TGI [10]
17.3 µM and > 10 µM: TGI [43]
40.7 µM and > 10 µM: TGI [55]

CCOC(=O)c1c(-c2ccccc2)oc(=O)c(Cc2cccc3cccnc23)c1-c1ccccc1
> 10 µM: TGI [1] | TGI [2] | TGI [3] | TGI [4] | TGI [5] | TGI [6] | TGI [7] | TGI [8] | TGI [9] | TGI [10] | TGI [11] | TGI [12] | TGI [13] | TGI [14] | TGI [15] | TGI [16] | TGI [17] | TGI [18] | TGI [19] | TGI [20] | TGI [21] | TGI [22] | TGI [23] | TGI [24] | TGI [25] | TGI [26] | TGI [27] | TGI [28] | TGI [29] | TGI [30] | TGI [31] | TGI [32] | TGI [33] | TGI [34] | TGI [35] | TGI [36] | TGI [37] | TGI [38] | TGI [39] | TGI [40] | TGI [41] | TGI [42] | TGI [43] | TGI [44] | TGI [45] | TGI [46] | TGI [47] | TGI [48] | TGI [49] | TGI [50] | TGI [51] | TGI [52] | TGI [53] | TGI [54] | TGI [55] | TGI [56] | TGI [57] | TGI [58]
